Source: PMC12930396, “Positive modulators of N-methyl-D-aspartate receptor: structure–activity relationship study on steroidal C-17 and C-20 oxime ethers” (RSC Advances, 2026)
Values after ≈ are worked out from the molar mass of the structure shown. “Also recorded” adds a separate entry of the source. Where a name gives a salt, the structure may show the parent alone. Read-outs that look alike come from different tables or passages of the source.

Columns and labels:
[1] = molecular target: NMDA receptors; settings: in Fig. 1; read-out: IC50, negative allosteric modulation of NMDA receptors; cited from earlier work
[2] = Thermodynamic solubility in PBS pH 7.4; format: physicochemical; settings: 20 °C, pH 7.4, aqueous buffer, thermodynamic from solid
Protocol: The reference samples were prepared as follows: a weight corresponding to 2.5 µmol was dissolved in 250 µL of DMSO, resulting in a concentration of 10 mM stock solution. Each calibration level standard was prepared by diluting the stock solution in a mixture of PBS and acetonitrile (50 : 50 v/v). The samples for testing were prepared as follows: the volume of 1000 µL of PBS was added to the testing tube containing a weight of sample corresponding to 0.4 mM. The mixture was shaken at 1000 rpm at 20 °C for 24 h. The mixture was then filtered using a syringe polypropylene 0.45 µm filter. Samples and calibration standards are prepared using an automated system of a robotic arm (PAL-RTC, Switzerland). Then, the sample was analysed on chromatographic system (Vanquish UHPLC, Thermo Fisher Scientific, Germany) connected to the diode array detector and consequently to the charged aerosol detector (both Vanquish, Thermo Fisher Scientific, Germany), Thermo Scientific Accucore C8 (100 × 3 mm; 2.6 µm) column, using gradient elution with acetonitrile/methanol/5 mM formate buffer (pH = 3.00); flow: 1.0 cm^3 min^−1; column temperature: 40 °C; CAD temperature: 30 °C; sample volume: 5 mm^3.

[3] = Stability in rat plasma; format: in vitro ADME
Protocol: Compounds were prepared as 1.6 mg mL^−1 stock solutions in methanol. Then, 20 µL of stock solution was added to 1000 µL of rat plasma (BioIVT, Cat. No. RAT00PLLH-0102307), maintained at 37 °C. Aliquots (50 µL) withdrawn at 0, 8, and 24 h were analyzed by HPLC. An aliquot of plasma was extracted with methanol (450 µL) containing an internal standard, and the solution was vortexed (20 s) and centrifuged at 13 500 rpm for 10 min. The supernatant was transferred to an autosampler vial, and 10 µL was injected into an LC-MS system. The samples were analyzed using an Agilent 6230 TOF LC/MS. Samples were separated on a Waters ACQUITY UPLC CSH Phenyl-Hexyl column (100 × 2.1, 130 Å, 1.7 µm) at a flow rate of 0.3 mL min^−1. […]. The temperature, the flow rate of the nitrogen drying gas, the pressure of the nitrogen nebulizing gas, and the flow rate of the sheath gas were set at 325 °C, 10 L min^−1, 40 psi, […], and 11 L min^−1, respectively. Results are represented as a percentage of the compound remaining in spiked plasma.

[4] = in vitro; settings: for PAMPA permeability Retention (mass retention): 5 h, 100 µM; for PAMPA permeability Retention (mass retention) / Papp at 5 h, 100 µM: pH 7.4; for Papp at 5 h, 100 µM: PAMPA
Protocol: Permeability was quantified using permeability coefficients (Pe) and mass retention, the latter representing the proportion of compound retained in the membrane.
Permeation experiments were conducted in polystyrene 96-well filter plates with PVDF membrane pre-coated with structured layers of phospholipids (Corning Gentest™) according to the manufacturer's instructions. Briefly, the plate was warmed to room temperature, and meanwhile, the solutions of the compounds were diluted from 10 mM DMSO stocks to TRIS–HCl buffer pH 7.4 to reach a 100 µM final concentration. The DMSO concentration in the samples was 1%. Then, 300 µL of these solutions were transferred into the donor (receiver) plate wells, and 200 µL of the (TRIS) buffer was added to the acceptor (filter) plate wells. The filter plate and receiver plate were assembled and incubated for 5 h on an orbital shaker (300 rpm). After this, the concentration of the tested substances in both the donor and acceptor compartments was determined with use of LC/MS. Liquid chromatography was performed using an ExionLC AD pump and autosampler from Sciex (Framingham, MA, USA). […] The mobile phase flow rate was 300 µL min^−1. The column Synergi Fusion-RP from Phenomenex (Torrance, CA, USA) was used and was kept at 40 °C during the analysis.

[5] = molecular target: T1, GluN1/GluN2B receptors (Rattus norvegicus, UniProt P35439+Q00960); experiment: Patch-clamp: modulation of glutamate-induced currents of recombinant GluN1/GluN2B receptors expressed in HEK293 cells; format: cell-based; settings: for h ± SEM (apparent Hill coefficient): concentration-response fit; for h ± SEM (apparent Hill coefficient) / EC50 / Emax: mean ± SEM; for EC50: half-maximal potentiation of currents evoked by 1 µM glutamate; for EC50 / Emax: HEK293; for Emax: maximal potentiation of currents evoked by 1 µM glutamate and 30 µM glycine
T1 construct: expressed in transfected cells; host or cells: HEK293 cells (ATCC No. CRL-1573)
Protocol: To investigate the effect of compounds 11–23 on the activity of NMDARs, electrophysiological measurements were performed on HEK293 cells that were co-transfected with cDNAs containing genes encoding for the rat GluN1-1a and GluN2B subunits. The degree of modulation (E; potentiation/inhibition) for the newly synthesized compounds was determined using the following formula: [drawing 1] where Ie is the value of the current amplitude during glutamate and compound coapplication, and Ia is the current amplitude value for glutamate application. […] The results are presented as mean ± standard error of the mean (SEM), with n equal to the number of independent measurements. One-way analysis of variance (ANOVA) was used for multiple comparisons (unless otherwise stated, a value of P ≤ 0.05 was used for the determination of significance).
We have evaluated the relationship between oxime derivatives 11–23 and their modulatory effect on recombinant GluN1/GluN2B receptors. Due to the […] effect of neurosteroid-based PAMs at NMDARs[20,44]
HEK293 cells (American Type Culture Collection, ATCC No. CRL-1573, Rockville, MD, USA) were cultured in Opti-MEM I (Invitrogen, Carlsbad, CA, USA) supplemented with 5% fetal bovine serum (FBS; PAN Biotech, Aidenbach, Germany) at 37 °C in 5% CO2. 24 h before transfection, HEK293 cells were plated in 24-well plates at a density of 2 × 10^5 cells per well. The next day, the cells were transfected with cDNA encoding rat GluN1-1a (GluN1; GenBank accession number U08261)[56] and GluN2B (GenBank accession number M91562)[57] subunits (in the pCI-neo expression vector), along with green fluorescent protein (GFP; in the pQBI 25 vector, Takara, Tokyo, Japan). Briefly, equal amounts (200 ng) of cDNAs encoding GluN1-1a, GluN2B, and GFP were mixed with 0.6 µl of Matra-A reagent (IBA, Gottingen, Germany) in 50 µL of Opti-MEM I and added to confluent HEK293 cells cultured in 24-well plates. After trypsinization, the cells were resuspended in Opti-MEM I containing 1% FBS, supplemented with 20 mM MgCl2, 1 mM D,L-2-amino-5-phosphonovaleric acid, 3 mM kynurenic acid, and 1 µM ketamine, and plated on 30 mm glass coverslips coated with collagen and poly-L-lysine. Transfected cells were identified by GFP epifluorescence. Electrophysiology experiments were performed 24–48 h after transfection.
Whole-cell current recordings, voltage-clamped at a holding potential of −60 mV, were performed at room temperature using a patch-clamp amplifier (Axopatch 200B; Molecular Devices, Sunnyvale, CA, USA) after capacitance and series resistance (<10 MΩ) compensation (80–90%). NMDAR current responses were low-pass filtered at 2 kHz, digitally sampled at 5 kHz, and analysed using pClamp software (version 10.6; Molecular Devices). Patch pipettes (3–5 MΩ), pulled from borosilicate glass, were filled with an intracellular solution (ICS) containing (in mM): 15 CsCl, 10 BAPTA, 3 MgCl2, 1 CaCl2, 120 gluconic acid, 10 HEPES, and 2 ATP-Mg salt (pH adjusted to 7.2 with CsOH). The extracellular solution (ECS) contained (in mM): 160 NaCl, 2.5 KCl, 0.2 EDTA, 10 glucose, 10 HEPES, and 0.7 CaCl2 (pH adjusted to 7.3 with NaOH). NMDAR responses were induced by 1 µM glutamate and 30 µM glycine. 1% DMSO was present in all control and testing solutions. Solution applications were performed using a microprocessor-controlled multibarrel fast-perfusion system with a solution exchange rate around the cells of ∼10 ms.[58]

[6] = in vitro; settings: for half-life at 10 µM: rat, microsomes
Protocol: The reactions were terminated by the addition of four volumes of ice-cold methanol, mixed vigorously, and left at −20 °C for 1h. After that, the samples were centrifuged and the supernatants were analysed by means of ECHO-MS® System (Sciex, Framingham, MA, USA). Zero time points were prepared by adding ice-cold methanol to the mixture of the compound with cofactors before the addition of microsomes. […] Intrinsic clearance (CLint) was calculated using the following formula: [drawing 4] where V is the incubation volume per milligram of microsomal protein (µL mg^−1) and t1/2 is the microsomal half-life.

[7] = Solubility PBS, pH 7.4 (thermodynamic)
[8] = PBS, PBS pH 7.4, 20 °C, 24 h, read-out: Solubility PBS, pH 7.4 (thermodynamic)

T1 sequence (Q00960 27-1482, other chains not shown): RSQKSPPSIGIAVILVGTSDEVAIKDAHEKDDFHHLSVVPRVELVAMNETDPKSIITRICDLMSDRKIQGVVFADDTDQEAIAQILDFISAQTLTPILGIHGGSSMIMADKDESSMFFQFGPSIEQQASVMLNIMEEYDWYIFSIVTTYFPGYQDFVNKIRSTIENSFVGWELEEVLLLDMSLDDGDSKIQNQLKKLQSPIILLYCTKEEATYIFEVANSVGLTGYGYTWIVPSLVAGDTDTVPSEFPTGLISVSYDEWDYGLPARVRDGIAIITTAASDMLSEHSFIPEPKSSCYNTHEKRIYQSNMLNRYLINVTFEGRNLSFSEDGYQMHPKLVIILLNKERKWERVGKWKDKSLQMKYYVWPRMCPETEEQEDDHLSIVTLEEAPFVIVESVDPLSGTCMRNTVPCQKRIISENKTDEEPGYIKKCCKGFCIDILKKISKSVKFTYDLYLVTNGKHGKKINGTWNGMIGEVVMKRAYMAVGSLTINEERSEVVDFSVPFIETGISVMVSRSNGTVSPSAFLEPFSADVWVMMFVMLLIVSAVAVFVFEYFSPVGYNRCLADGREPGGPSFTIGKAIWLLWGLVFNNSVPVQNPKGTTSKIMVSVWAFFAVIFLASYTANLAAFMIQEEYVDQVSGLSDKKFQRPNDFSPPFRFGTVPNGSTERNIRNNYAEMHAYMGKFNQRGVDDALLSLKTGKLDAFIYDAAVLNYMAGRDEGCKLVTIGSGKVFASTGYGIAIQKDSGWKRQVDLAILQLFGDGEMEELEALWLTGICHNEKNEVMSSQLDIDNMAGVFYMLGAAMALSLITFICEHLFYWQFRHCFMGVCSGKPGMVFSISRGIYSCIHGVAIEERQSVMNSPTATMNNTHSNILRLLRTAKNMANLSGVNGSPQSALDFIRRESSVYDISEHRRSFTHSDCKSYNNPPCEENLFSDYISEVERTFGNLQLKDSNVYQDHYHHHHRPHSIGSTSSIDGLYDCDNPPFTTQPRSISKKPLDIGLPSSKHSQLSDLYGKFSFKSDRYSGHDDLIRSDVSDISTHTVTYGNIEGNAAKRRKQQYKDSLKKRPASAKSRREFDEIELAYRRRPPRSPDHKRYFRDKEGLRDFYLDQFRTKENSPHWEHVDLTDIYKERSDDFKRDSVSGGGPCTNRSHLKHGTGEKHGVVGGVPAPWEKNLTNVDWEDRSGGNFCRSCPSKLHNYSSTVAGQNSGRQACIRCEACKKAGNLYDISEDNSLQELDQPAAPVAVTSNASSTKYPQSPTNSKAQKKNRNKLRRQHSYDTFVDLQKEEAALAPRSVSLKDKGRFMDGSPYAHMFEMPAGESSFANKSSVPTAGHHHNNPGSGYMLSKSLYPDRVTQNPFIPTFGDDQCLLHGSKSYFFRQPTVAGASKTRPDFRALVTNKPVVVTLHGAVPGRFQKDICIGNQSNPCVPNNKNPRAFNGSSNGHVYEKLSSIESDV

Compound	solubility thermodynamic at 24 h [2, 7] [µM]	Stability in rat plasma (% remaining) 8 h ([3]; rat, plasma) [% remaining]	Stability in rat plasma (% remaining) 24 h ([3]; rat, plasma) [% remaining]	PAMPA permeability Retention (mass retention) [4] [%]	Papp at 5 h, 100 µM [4] [×10⁻⁶ cm/s]	h ± SEM (apparent Hill coefficient) [5]	EC50 [5] [µM]	Emax [5] [%]	half-life at 10 µM ([6]; pH 7.4) [min]	other results
CC(=O)[C@H]1CC[C@H]2[C@@H]3CC[C@@H]4C[C@H](OS(=O)(=O)O)CC[C@]4(C)[C@H]3CC[C@]12C [PAS, 20-oxo-5β-pregnan-3α-yl sulfate]	–	–	–	–	–	–	–	–	–	IC50 [1]: 24.6 µM
CC(=O)[C@H]1CC[C@H]2[C@@H]3CC=C4C[C@@H](OC(=O)CCCCC(=O)O)CC[C@]4(C)[C@H]3CC[C@]12C [20-Oxo-PE-hAdi, 20-Oxo-pregn-5-en-3β-yl hemiadipate, reference compound]	20 ± 2 (≈ 8.89 µg/mL)	11 ± 0	2 ± 0	–	–	–	–	–	–	–
CCO/N=C(\C)[C@H]1CCC2C3CC=C4C[C@@H](OC(=O)CCC(=O)O)CC[C@]4(C)C3CC[C@@]21C (stereo partly drawn) [Compound 22, 20-Oxo-pregn-5-en-3β-yl hemisuccinate O-ethyloxime]	22 ± 1	–	–	96	1.58	1.3 ± 0.1	7 ± 1.1	340 ± 22	52.6 ± 3.7	Stability in rat microsomes Clint [6]: 26.3 µlmin^−1mg
CCO/N=C(\C)[C@H]1CCC2C3CC=C4C[C@@H](OC(=O)CCCCC(=O)O)CC[C@]4(C)C3CC[C@@]21C (stereo partly drawn) [Compound 23, 20-Oxo-pregn-5-en-3β-yl hemiadipate O-ethyloxime]	21 ± 1 (≈ 10.2 µg/mL)	–	–	100	–	1.7 ± 0.1	7.5 ± 1.1	451 ± 79	> 60	Metabolic stability in rat liver microsomes ([6]; 1 h, 10 µM, pH 7.4): no detectable metabolism after 60 min
C/C(=N\O)[C@H]1CCC2C3CC=C4C[C@@H](OC(=O)CCCC(=O)O)CC[C@]4(C)C3CC[C@@]21C (stereo partly drawn) [Compound 11, 20-Oxo-pregn-5-en-3β-yl 3-hemiglutarate 20-oxime]	–	69.9 ± 6.0	58.1 ± 8.1	87	155	1.5 ± 0.1	7.9 ± 2.1	270 ± 35	58.6 ± 18.7	PAMPA permeability [4]: comparable to or greater than that of verapamil; Stability in rat microsomes Clint [6]: 23.6 µlmin^−1mg
CC(=O)[C@H]1CC[C@H]2[C@@H]3CC=C4C[C@@H](OC(=O)CCCC(=O)O)CC[C@]4(C)[C@H]3CC[C@]12C [20-Oxo-PE-hGlu, 20-Oxo-pregn-5-en-3β-yl hemiglutarate, reference compound]	–	–	–	–	–	–	–	–	–	solubility thermodynamic at 24 h [2, 8]: 86 ± 1 µM (≈ 37 µg/mL); Stability in rat plasma (% remaining) 8 h ([3]; rat plasma, 37 °C): 44 ± 3 % remaining; Stability in rat plasma (% remaining) 24 h ([3]; rat plasma, 37 °C): 21 ± 1 % remaining
CC(=O)[C@H]1CC[C@H]2[C@@H]3CC=C4C[C@@H](OC(=O)CCC(=O)O)CC[C@]4(C)[C@H]3CC[C@]12C [20-Oxo-PE-hSuc, 20-Oxo-pregn-5-en-3β-yl hemisuccinate, reference compound]	–	–	–	–	–	–	–	–	–	solubility thermodynamic at 24 h [2, 8]: 277 ± 1 µM; Stability in rat plasma (% remaining) 8 h ([3]; rat plasma, 37 °C): 69 ± 1 % remaining; Stability in rat plasma (% remaining) 24 h ([3]; rat plasma, 37 °C): 50 ± 2 % remaining
C[C@]12CC[C@H](OC(=O)CCCC(=O)O)CC1=CCC1C2CC[C@]2(C)/C(=N/O)CCC12 (stereo partly drawn) [Compound 14, 17-Oxo-androst-5-en-3β-yl 3-hemiglutarate 17-oxime]	–	61.1 ± 1.6	56.3 ± 2.5	17	26.3	–	–	–	> 60	PAMPA permeability [4]: moderate permeability; Modulatory profile at NMDARs ([5]; GluN1/GluN2B in HEK293): not identified as PAMs; also recorded: lost its PAM-activity
CCO/N=C1\CCC2C3CC=C4C[C@@H](OC(=O)CCCC(=O)O)CC[C@]4(C)C3CC[C@]12C (stereo partly drawn) [Compound 15, 17-Oxo-androst-5-en-3β-yl hemiglutarate O-ethyloxime]	–	82.1 ± 7.5	69.9 ± 5.0	80	–	1.5 ± 0.1	22.7 ± 3.1	441 ± 76	> 60	–
